Converted amounts (≈) assume the structure as drawn. Where only a bound is given, the exact number is not on record here.

The text below walks through data of ChEMBL document CHEMBL5050861 (2021).

Series [1] is described as follows: Stability of compound in rat microsomes assessed as half-life. The class given is ADME, Microsome.
The nature of series [2]: Kinetic aqueous solubility of the compound. The class given is physicochemical. The settings on record: buffer; read-out: Kinetic_solubility.
Series [3] in a line: Inhibition of recombinant mouse GALK1 using ATP as substrate incubated for 1 hr and measured by Kinase-Glo assay. To be noted: read-out: IC50.

On to `CC1=C(C(=O)Nc2nnc(C(F)(F)F)s2)C(c2ccccc2Cl)N=C(Nc2nc3ccccc3o2)N1` (configuration not stated), for which the half-life in series [1] is greater than 30 min. The solubility kinetic in series [2] is less than 1 µg/mL. Moreover, the half-maximal inhibitory concentration (IC50) in series [3] amounted to 21.7 µM.
For `CCn1cc(CNC(=O)C2=C(C)NC(Nc3nc4ccc(F)c(N)c4o3)=NC2c2ccccc2Cl)cn1` (configuration not stated), the half-life in series [1] came to 17.7 min. Besides, the solubility kinetic in series [2] was 23.9 µg/mL (≈ 45.6 µM). For the same molecule, the IC50 in series [3] came out at 2.17 µM.
Take `CC1=C(C(=O)NCc2cnn(C)c2)C(c2ccc(C)cc2Cl)N=C(Nc2nc3cnccc3o2)N1` (configuration not stated): the half-life in series [1] amounted to 5.12 min. Moreover, the solubility kinetic in series [2] is greater than 49 µg/mL. Besides, in series [3], the IC50 came to 12.2 µM.
Take `CC1=C(C(=O)NCc2c(C)nn(C)c2C)C(c2ccc(C)cc2Cl)N=C(Nc2nc3cccc(N)c3o2)N1` (configuration not stated): the half-life in series [1] was determined as 2.37 min. In series [2], the solubility kinetic worked out at 12 µg/mL (≈ 22.5 µM). Moreover, the IC50 in series [3] worked out at 6.85 µM.
For `CC1=C(C(=O)Nc2ccccn2)C(c2ccccc2Cl)N=C(Nc2nc3cccc(N)c3o2)N1` (configuration not stated), in that order: greater than 30 min, less than 1 µg/mL and 19.3 µM.
For `CC1=C(C(=O)Nc2cc(C(=O)O)ccc2F)C(c2ccccc2Cl)N=C(Nc2nc3ccccc3o2)N1` (configuration not stated), in that order: greater than 30 min, 25.4 µg/mL (≈ 48.9 µM) and 10.9 µM.
For `COCCNC(=O)C1CC(=O)C2=C(C1)NC(Nc1nc3ccccc3o1)=NC2c1ccccc1Cl` (configuration not stated), in that order: 10.2 min, 4.23 µg/mL (≈ 8.56 µM) and 4.85 µM.
With `CC1=C(C(=O)Nc2nncs2)C(c2ccccc2C(F)(F)F)N=C(Nc2nc3ccccc3o2)N1` (configuration not stated), the half-life in series [1] was greater than 30 min. The solubility kinetic in series [2] was less than 1 µg/mL. Also, the IC50 in series [3] was found to be 12.2 µM.
With `CC1=C(C(=O)Nc2cc(C(=O)O)ccc2Cl)C(c2ccccc2Cl)N=C(Nc2nc3ccc(F)cc3o2)N1` (configuration not stated), the half-life in series [1] was greater than 30 min. Moreover, in series [2], the solubility kinetic came out at 54 µg/mL (≈ 97.4 µM). Besides, the concentration for half-maximal inhibition (IC50) in series [3] is 19.3 µM.
Turning to `COC(=O)c1ccc(NC(=O)C2=C(C)NC(Nc3nc4ccccc4o3)=NC2c2ccccc2Cl)cn1` (configuration not stated), in series [1], the half-life worked out at 4.68 min. Also, the solubility kinetic in series [2] was less than 1 µg/mL. The IC50 in series [3] was 6.85 µM.
In the case of `CC1=C(C(=O)NCc2cnn(C)c2)C(c2ccc(F)cc2Cl)N=C(Nc2nc3cccc(N)c3o2)N1` (configuration not stated), in series [1], the half-life was found to be 29.6 min. In series [2], the solubility kinetic amounted to 49.6 µg/mL (≈ 97.5 µM). Further, in series [3], the concentration for half-maximal inhibition (IC50) was found to be 6.85 µM.
For `CC1=C(S(C)(=O)=O)C(c2ccccc2Cl)N=C(Nc2nc3ccccc3o2)N1` (configuration not stated), the half-life in series [1] is 9.37 min. Also, the solubility kinetic in series [2] was less than 1 µg/mL. For the same molecule, the IC50 in series [3] came to 19.3 µM.
For the molecule `CC1=C(C(=O)NCc2c(C)nn(C)c2C)C(c2ccc(C)cc2Cl)N=C(Nc2nc3ccc(F)cc3o2)N1` (configuration not stated), in series [1], the half-life is 2.66 min. Also, the solubility kinetic in series [2] is less than 1 µg/mL. For the same molecule, the IC50 in series [3] was found to be 4.85 µM.
`CC1=C(C(=O)Nc2cccc(F)c2)C(c2ccccc2Cl)N=C(Nc2nc3ccccc3o2)N1` (configuration not stated): the half-life in series [1] was greater than 30 min. For the same molecule, the solubility kinetic in series [2] was less than 1 µg/mL. Besides, the 50% inhibitory concentration (IC50) in series [3] turned out to be 12.2 µM.
`CCn1ncc(CNC(=O)C2=C(C)NC(Nc3nc4ccc(F)c(N)c4o3)=NC2c2ccc(C)cc2Cl)c1F` (configuration not stated): in series [1], the half-life was found to be 7.04 min. Also, in series [2], the solubility kinetic is less than 1 µg/mL. In addition, the IC50 in series [3] was 1.09 µM.
`CC1=C(C(=O)Nc2cc(C(=O)O)ccn2)C(c2ccccc2Cl)N=C(Nc2nc3cccc([N+](=O)[O-])c3o2)N1` (configuration not stated): the half-life in series [1] was greater than 30 min. Further, in series [2], the solubility kinetic was determined as 7.3 µg/mL (≈ 13.3 µM). Moreover, in series [3], the half-maximal inhibitory concentration (IC50) was found to be 38.5 µM.
As to `CC(C)C1=C(C(=O)Nc2nncs2)C(c2ccccc2Cl)N=C(Nc2nc3ccccc3o2)N1` (configuration not stated), in series [1], the half-life was greater than 30 min. Further, the solubility kinetic in series [2] was less than 1 µg/mL. The half-inhibitory concentration (IC50) in series [3] turned out to be 15.3 µM.
Consider `CC1=C(C(=O)Nc2ccc(C(=O)N3CCOCC3)cc2)C(c2ccccc2Cl)N=C(Nc2nc3ccccc3o2)N1` (configuration not stated), for which the half-life in series [1] is greater than 30 min. Besides, in series [2], the solubility kinetic is less than 1 µg/mL. Moreover, the concentration for half-maximal inhibition (IC50) in series [3] worked out at 21.7 µM.
The matching figures for `O=C(Nc1nncs1)C1=C(C(F)(F)F)NC(Nc2nc3ccccc3o2)=NC1c1ccccc1Cl` (configuration not stated): greater than 30 min, 21.9 µg/mL (≈ 42.1 µM) and 17.2 µM.

By half-life is commonly meant how long it takes for the measured level to halve. As a reminder, the IC50 is the concentration needed to halve the response being measured.
